From DBAASP
≈ marks a conversion by molar mass, not a printed value. Each block holds one molecule with its values, some of them ahead of it.

Key:
Test in all cases: ≥ marks a high value that may be exact or a test limit, other limits are often not marked, values filed in µg/mL are converted to µM
[1] = test system: Pseudomonas aeruginosa ATCC 10145
[2] = test system: Staphylococcus epidermidis ATCC 14990
[3] = test system: Salmonella enterica subsp. enterica serovar Typhimurium ATCC 700931
Escherichia coli D31 = test system: Escherichia coli D31
[4] = test system: Staphylococcus aureus ATCC 27660
[5] = test system: Pseudomonas aeruginosa PAO1
[6] = test system: Zymomonas mobilis ATCC 10988
Bacillus subtilis DELTA = test system: Bacillus subtilis DELTA
[7] = test system: Escherichia coli DH5alpha
Candida parapsilosis = test system: Candida parapsilosis
[8] = test system: Streptococcus sobrinus ATCC 6715
[9] = test system: Streptococcus mutans UA159
[10] = test system: Streptococcus sanguinis ATCC 10556
[11] = test system: Staphylococcus epidermidis CICC 23664
[12] = test system: Staphylococcus epidermidis
[13] = test system: Pseudomonas aeruginosa CGMCC 1.860
[14] = test system: Pseudomonas aeruginosa 0108
[15] = test system: Salmonella enterica subsp. enterica serovar Typhimurium ATCC 14028
[16] = test system: Klebsiella aerogenes ATCC 13048
[17] = test system: Bacillus cereus ATCC 11778
[18] = test system: Staphylococcus aureus ATCC 29213
[19] = test system: Escherichia coli ATCC 25922
[20] = test system: Pseudomonas aeruginosa NBRC 13275
[21] = test system: Escherichia coli NBRC 3972
[22] = test system: Staphylococcus aureus NBRC 13276
[23] = test system: Erwinia amylovora PMV 6076
[24] = test system: Xanthomonas campestris pv. Vesicatoria 2133-2
[25] = test system: Pseudomonas syringae pv. syringae EPS 94
Escherichia coli C600 = test system: Escherichia coli C600
[26] = test system: Staphylococcus aureus 209P

Compound: CC(C)C[C@H](NC(=O)[C@H](C)N)C(=O)N[C@@H](Cc1c[nH]c2ccccc12)C(=O)N[C@@H](CCCCN)C(=O)N[C@@H](CCCCN)C(=O)N[C@@H](CC(C)C)C(=O)N[C@@H](CC(C)C)C(=O)N[C@@H](CCCCN)C(=O)N[C@@H](CCCCN)C(=O)N[C@@H](CC(C)C)C(=O)N[C@@H](CC(C)C)C(=O)N[C@@H](CCCCN)C(=O)N[C@@H](CO)C(=O)N[C@@H](C)C(=O)N[C@@H](CCCCN)C(=O)N[C@@H](CCCCN)C(=O)N[C@@H](CC(C)C)C(=O)NCC(=O)O [ALWKKLLKKLLKSAKKLG]
- MIC [1]: 1.88 µM (≈ 3.89 µg/mL)
- MIC [2]: 0.94 µM (≈ 1.94 µg/mL)
- MIC [3]: 1.88 µM (≈ 3.89 µg/mL)
- MIC (Escherichia coli D31): 0.94 µM (≈ 1.94 µg/mL)
- MIC [4]: 1.88 µM (≈ 3.89 µg/mL)

Compound: CC(C)[C@H](NC(=O)[C@H](C)N)C(=O)N[C@@H](Cc1c[nH]c2ccccc12)C(=O)N[C@@H](CCCCN)C(=O)N[C@@H](CCCCN)C(=O)N[C@H](C(=O)N[C@H](C(=O)N[C@@H](CCCCN)C(=O)N[C@@H](CCCCN)C(=O)N[C@H](C(=O)N[C@H](C(=O)N[C@@H](CCCCN)C(=O)N[C@@H](CO)C(=O)N[C@@H](C)C(=O)N[C@@H](CCCCN)C(=O)N[C@@H](CCCCN)C(=O)N[C@H](C(=O)NCC(=O)O)C(C)C)C(C)C)C(C)C)C(C)C)C(C)C [AVWKKVVKKVVKSAKKVG]
- MIC [1]: 7.5 µM (≈ 14.9 µg/mL)
- MIC [2]: 7.5 µM (≈ 14.9 µg/mL)
- MIC [3]: 7.5 µM (≈ 14.9 µg/mL)
- MIC (Escherichia coli D31): 3.75 µM (≈ 7.43 µg/mL)
- MIC [4]: 7.5 µM (≈ 14.9 µg/mL)

Compound: CC[C@H](C)[C@H](NC(=O)[C@H](CCCN=C(N)N)NC(=O)[C@H](CCCCN)NC(=O)[C@H](Cc1ccccc1)NC(C)=O)C(=O)N[C@H](C(=O)N[C@@H](CCC(N)=O)C(=O)N[C@@H](CC(C)C)C(=O)N[C@@H](CC(C)C)C(=O)N[C@@H](CCCCN)C(=O)N[C@@H](CCCCN)C(=O)N[C@@H](CC(C)C)C(=O)N[C@@H](CC(C)C)C(=O)N[C@@H](CCCN=C(N)N)C(N)=O)C(C)C [FKRIVQLLKKLLR]
- MIC [5]: 1.81 µM (≈ 3.07 µg/mL)
- MIC [6]: 3.02 µM (≈ 5.12 µg/mL)
- MIC (Bacillus subtilis DELTA): 6.04 µM (≈ 10.2 µg/mL)
- MIC [7]: ≥ 60.4 µM
- MIC (Candida parapsilosis): 24.2 µM (≈ 41 µg/mL)

Compound: CC(C)[C@H](NC(=O)[C@H](CCCCN)NC(=O)[C@H](C)NC(=O)[C@H](C)NC(=O)[C@H](CCCCN)NC(=O)[C@H](CCCCN)NC(=O)[C@H](Cc1ccccc1)NC(=O)[C@H](Cc1ccccc1)NC(=O)[C@H](CCCCN)NC(=O)CNC(=O)[C@H](Cc1c[nH]c2ccccc12)NC(=O)CN)C(=O)NCC(=O)N[C@@H](CCCCN)C(=O)N[C@@H](CCCCN)C(=O)N[C@H](C(=O)NCC(=O)O)C(C)C [GWGKFFKKAAKVGKKVG]
- MIC [8]: ≥ 279 µM
- MIC [9]: ≥ 279 µM
- MIC [10]: ≥ 279 µM

Compound: NCCCC[C@H](NC(=O)CNC(=O)[C@H](Cc1ccccc1)NC(=O)[C@H](CCCCN)NC(=O)[C@H](Cc1ccccc1)NC(=O)[C@H](Cc1ccccc1)NC(=O)[C@H](CCCCN)NC(=O)[C@H](CCCCN)NC(=O)[C@H](Cc1ccccc1)NC(=O)[C@H](Cc1ccccc1)NC(=O)[C@H](CCCCN)NC(=O)CNC(=O)[C@H](Cc1c[nH]c2ccccc12)NC(=O)CN)C(=O)O [GWGKFFKKFFKFGK]
- MIC [8]: 9.13 µM (≈ 16 µg/mL)
- MIC [9]: 9.13 µM (≈ 16 µg/mL)
- MIC [10]: 9.13 µM (≈ 16 µg/mL)

Compound: CC[C@H](C)[C@H](N)C(=O)N[C@@H](CCCCN)C(=O)N[C@@H](CCCCN)C(=O)N[C@H](C(=O)N[C@@H](CC(C)C)C(=O)N[C@@H](CO)C(=O)N[C@@H](CCCCN)C(=O)N[C@H](C(=O)N[C@@H](CCCCN)C(=O)N[C@@H](CCCCN)C(=O)N[C@@H](CC(C)C)C(=O)N[C@@H](Cc1c[nH]c2ccccc12)C(=O)N[C@@H](CCCCN)C(N)=O)[C@@H](C)CC)[C@@H](C)CC [IKKILSKIKKLWK]
- MIC [11]: 12.5 µM (≈ 20.3 µg/mL)
- MIC [12]: 12.5 µM (≈ 20.3 µg/mL)
- MIC [13]: 25 µM (≈ 40.6 µg/mL)
- MIC [14]: 25 µM (≈ 40.6 µg/mL)

Compound: CC[C@H](C)[C@H](N)C(=O)N[C@@H](CCCCN)C(=O)N[C@@H](CCCCN)C(=O)N[C@H](C(=O)N[C@@H](CC(C)C)C(=O)N[C@@H](CO)C(=O)N[C@@H](CCCCN)C(=O)N[C@H](C(=O)N[C@@H](CCCCN)C(=O)N[C@@H](CCCCN)C(=O)N[C@@H](Cc1c[nH]c2ccccc12)C(=O)N[C@@H](CC(C)C)C(=O)N[C@@H](CCCCN)C(N)=O)[C@@H](C)CC)[C@@H](C)CC [IKKILSKIKKWLK]
- MIC [11]: 3.12 µM (≈ 5.07 µg/mL)
- MIC [12]: 12.5 µM (≈ 20.3 µg/mL)
- MIC [13]: 12.5 µM (≈ 20.3 µg/mL)
- MIC [14]: 25 µM (≈ 40.6 µg/mL)

Compound: CC[C@H](C)[C@H](N)C(=O)N[C@@H](CC(C)C)C(=O)NCC(=O)N[C@@H](CCCCN)C(=O)N[C@H](C(=O)N[C@@H](Cc1c[nH]c2ccccc12)C(=O)N[C@@H](CCC(=O)O)C(=O)NCC(=O)N[C@H](C(=O)N[C@@H](CCCCN)C(=O)N[C@@H](CO)C(=O)N[C@@H](CC(C)C)C(=O)N[C@@H](Cc1ccccc1)C(N)=O)C(C)C)C(C)C [ILGKVWEGVKSLF]
- MIC [15]: > 67.8 µM
- MIC [16]: ≥ 67.8 µM
- MIC [17]: ≥ 67.8 µM
- MIC [18]: > 67.8 µM
- MIC [19]: > 67.8 µM

Next, values leading:

- MIC [20]: ≥ 800 µM
- MIC [21]: ≥ 800 µM
- MIC [22]: ≥ 800 µM
Compound: CC(=O)N[C@@H](CCCCN)C(=O)N[C@@H](CCCCN)C(=O)NCC(=O)N[C@@H](CCCCN)C(=O)N[C@@H](CCCCN)C(=O)NCC(=O)N[C@@H](CCCCN)C(=O)N[C@@H](CCCCN)C(=O)NCC(N)=O [KKGKKGKKG]

- MIC [23]: 3.54 µM (≈ 10.7 µg/mL)
- MIC [24]: 6.12 µM (≈ 18.5 µg/mL)
- MIC [25]: 8.66 µM (≈ 26.1 µg/mL)
Compound: CC[C@H](C)[C@H](NC(=O)[C@H](CCCCN)NC(=O)[C@H](CCCCN)NC(=O)[C@H](Cc1ccccc1)NC(=O)[C@H](CC(C)C)NC(=O)[C@H](CCCCN)NC(=O)[C@@H](N)CCCCN)C(=O)N[C@@H](CC(C)C)C(=O)N[C@@H](CCCCN)C(=O)N[C@@H](Cc1ccc(O)cc1)C(=O)N[C@@H](CC(C)C)C(=O)N[C@@H](C)C(=O)NCC(=O)N1CCC[C@H]1C(=O)N[C@@H](C)C(=O)N[C@@H](CCCCN)C(=O)N[C@@H](Cc1ccccc1)C(=O)N[C@@H](CC(C)C)C(=O)N[C@@H](Cc1cnc[nH]1)C(=O)N[C@@H](CO)C(=O)N[C@@H](C)C(=O)N[C@@H](CCCCN)C(=O)N[C@@H](CCCCN)C(=O)N[C@@H](CC(=O)O)C(=O)N[C@@H](CCC(=O)O)C(=O)N[C@@H](CC(C)C)C(=O)O [KKLFKKILKYLAGPAKFLHSAKKDEL]

- MIC [6]: 8.04 µM (≈ 9.99 µg/mL)
- MIC (Bacillus subtilis DELTA): ≥ 32.2 µM
- MIC [7]: ≥ 322 µM
- MIC (Candida parapsilosis): 24.1 µM (≈ 30 µg/mL)
Compound: CC[C@H](C)[C@H](NC(=O)[C@H](Cc1ccccc1)NC(=O)[C@H](CCCCN)NC(=O)[C@H](CC(C)C)NC(=O)[C@H](CC(C)C)NC(=O)[C@@H](N)CCCCN)C(=O)N[C@@H](CCCCN)C(=O)N[C@@H](CCCCN)C(=O)N[C@@H](CC(C)C)C(=O)N[C@@H](CC(C)C)C(N)=O [KLLKFIKKLL]

- MIC [5]: 50 µM (≈ 117 µg/mL)
- MIC (Escherichia coli C600): 3.13 µM (≈ 7.33 µg/mL)
- MIC [26]: 3.13 µM (≈ 7.33 µg/mL)
Compound: CC(C)[C@@H]1NC(=O)CNC(=O)[C@H](CCCN=C(N)N)NC(=O)[C@H](CCCN=C(N)N)NC(=O)[C@H](CCCN=C(N)N)NC(=O)[C@H](C)NC(=O)[C@H](Cc2ccc(O)cc2)NC(=O)[C@H](C(C)C)NC(=O)[C@@H](NC(=O)[C@H](Cc2c[nH]c3ccccc23)NC(=O)[C@@H](N)CCCN=C(N)N)CSSC[C@@H](C(=O)N[C@@H](Cc2c[nH]c3ccccc23)C(=O)O)NC(=O)[C@H](CCCN=C(N)N)NC(=O)[C@H](CCCN=C(N)N)NC(=O)[C@H](Cc2ccc(O)cc2)NC(=O)[C@H](CCCN=C(N)N)NC1=O [RWCVYARRRGVRYRRCW]
